Data taken from publication PMC11350846, “Synthesis of Second-Generation Analogs of Temporin-SHa Peptide Having Broad-Spectrum Antibacterial and Anticancer Effects” (Antibiotics, 2024).
Where a SMILES comes first, the peptide text is derived from it. [ ]: non-standard residue; d: D form.

Legend:
Lung Cancer (A549) = format: cell-based, human; settings: A549, 48 h; read-out: 50% inhibitory concentrations (IC50), cell proliferation
Method: (§1) The antiproliferative activity of the peptides was evaluated, as previously described using human cancer cell lines (A549 (lung), A2780 (ovary), HepG-2 (liver), MCF-7 (breast), MiaPaCa-2 (pancreas), MNT-1 (skin), and PC-3 (prostate)) and normal human lung fibroblasts (IMR-90) or epithelial cells (BEAS-2B). The cells were cultured in DMEM supplemented with 10% FBS, 1% L-glutamine, and 1% antibiotics at 37 °C in a 5% CO2 incubator. For the antiproliferative assay, cells were seeded in 96-well plates at approximately 3000 cells/well. Twenty-four hours later, cells were treated with increasing concentrations of peptides (1:2 serial dilution from 100 µM to 0 µM) for 48 h. After treatment, the number of viable cells was determined using a resazurin-based assay, and the fluorescence intensity was measured with a microplate reader (Ex 530 nm/Em 590 nm). The IC50 values of the peptides (i.e., the concentrations causing 50% inhibition of cell proliferation) were determined using GraphPad® Prism 7 software. The experiments were performed in triplicate (n = 3). The cytotoxicity of the peptides was also evaluated using confluent/no-dividing cells, as previously described. Briefly, human cells were seeded onto 96-well plates at 20,000 cells/well. When they reached 80–90% confluence (after 24–48 h), cells were treated with escalating concentrations of peptides. After 48h incubation, cell viability was measured using a resazurin assay and CC50 (i.e., the concentrations causing 50% inhibition of cell viability) and determined using GraphPad® Prism 7 software. The experiments were performed in triplicate (n = 3).

[1] = system: Normal Lung Epithelium (BEAS-2B); format: cell-based, human; settings: BEAS-2B normal cells, 48 h; read-out: 50% inhibitory concentrations (IC50), cell proliferation
Method: as §1

Liver Cancer (HepG-2) = format: cell-based, human; settings: HepG-2, 48 h; read-out: 50% inhibitory concentrations (IC50), cell proliferation
Method: as §1

[2] = system: Pancreatic Cancer (MiaPaCa-2); format: cell-based, human; settings: MiaPaCa-2, 48 h; read-out: 50% inhibitory concentrations (IC50), cell proliferation
Method: as §1

Ovarian Cancer (A2780) = format: cell-based, human; settings: A2780, 48 h; read-out: 50% inhibitory concentrations (IC50), cell proliferation
Method: as §1

Prostate Cancer (PC-3) = format: cell-based, human; settings: PC-3, 48 h; read-out: 50% inhibitory concentrations (IC50), cell proliferation
Method: as §1

Skin Cancer (MNT-1) = format: cell-based, human; settings: MNT-1, 48 h; read-out: 50% inhibitory concentrations (IC50), cell proliferation
Method: as §1

[3] = system: Normal Lung Fibroblast (IMR-90); format: cell-based, human; settings: IMR-90 normal cells, 48 h; read-out: 50% inhibitory concentrations (IC50), cell proliferation
Method: as §1

Breast Cancer (MCF-7) = format: cell-based, human; settings: MCF-7, 48 h; read-out: 50% inhibitory concentrations (IC50), cell proliferation
Method: as §1

S. aureus (ATCC 6538) = settings: 18-24 h
Method: (§2) The peptides were assessed for their antibacterial activity by determining the minimum inhibitory concentration (MIC) using the two-fold serial dilution method following the National Committee of Clinical Laboratory Standards, as previously described. Gram-negative (Acinetobacter baumannii (DSM 30007), Escherichia coli (ATCC 8739), Enterobacter cloacae (DSM 30054), Helicobacter pylori (ATCC 43504), Klebsiella pneumoniae (DSM 26371), Pseudomonas aeruginosa (ATCC 9027)) and Gram-positive bacteria (Bacillus subtilis (ATCC 6633), Enterococcus faecalis (DSM 2570), Enterococcus faecium (DSM 20477), Staphylococcus aureus (ATCC 6538)) were used for the antibacterial activity assays. In brief, 3 mL of Mueller–Hinton (MH) broth was inoculated with single clusters of the various bacterial strains and incubated overnight at 37 °C with agitation at 200 rpm. The next day, the bacterial solution was diluted with sterile MH by 1/100 and further incubated at 37 °C and 200 rpm until the bacteria reached the log phase growth (OD600nm around 0.6). The bacterial suspension was then adjusted to a density of approximately 10^5 bacteria/mL, and 100 μL was added per well of 96-well microplates (Greiner BioOne, Les Ulis, France), followed by exposure to increasing concentrations of peptides (from 0 to 100 µM, 1:2 dilution). Plates were then incubated at 37 °C for 18-24 h under either aerobic (for A. baumannii, E. cloacae, E. coli, P. aeruginosa, B. subtilis, and S. aureus) or micro-aerobic conditions generated using GasPak units (for E. faecalis, E. faecium and, H. pylori). […] The optical density (OD) at 600nm was measured using a microplate reader (Biotek, Synergy Mx, Les Ulis, France) after the final incubation. All experiments were performed in triplicate (n = 3).

K. pneumonia (DSM 26371) = settings: K. pneumonia (DSM 26371), 18-24 h
Method: as §2

E. coli (ATCC 8739) = settings: E. coli (ATCC 8739), 18-24 h
Method: as §2

H. pylori (ATCC 43504) = settings: micro-aerobic, 18-24 h
Method: as §2

A. baumannii (DSM 30007) = settings: A. baumannii (DSM 30007), 18-24 h
Method: as §2

[4] = system: P. aeruginosa (ATCC 9027); settings: P. aeruginosa (ATCC 9027), 18-24 h
Method: as §2

B. subtilis (ATCC 6633) = settings: 18-24 h
Method: as §2

E. faecalis (DSM 2570) = settings: E. faecalis (DSM 2570), micro-aerobic, 18-24 h
Method: as §2

E. cloacae (DSM 30054) = settings: E. cloacae (DSM 30054), 18-24 h
Method: as §2

E. faecium (DSM 20477) = settings: E. faecium (DSM 20477), micro-aerobic, 18-24 h
Method: as §2

Compound: CC[C@H](C)[C@H](NC(=O)CNC(=O)[C@H](CO)NC(=O)[C@H](CC(C)C)NC(=O)[C@@H](N)Cc1ccccc1)C(=O)N[C@H](C(=O)NCC(=O)N[C@@H](CCSC)C(=O)N[C@@H](CC(C)C)C(=O)NCC(=O)N[C@@H](CCCCN)C(=O)N[C@@H](CC(C)C)C(=O)N[C@@H](Cc1ccccc1)C(N)=O)C(C)C [Temporin-SHa (1), H-Phe^1-Leu^2-Ser^3-Gly^4-IIe^5-Val^6-Gly^7-Met^8-Leu^9-Gly^10-Lys^11-Leu^12-Phe^13-NH2, reference compound] (H-FLSGIVGMLGKLF-NH2)
- IC50 (Lung Cancer (A549)): > 100 µM
- IC50 [1]: > 100 µM
- IC50 (Liver Cancer (HepG-2)): > 100 µM
- IC50 [2]: > 100 µM
- IC50 (Ovarian Cancer (A2780)): > 100 µM
- IC50 (Prostate Cancer (PC-3)): > 100 µM
- IC50 (Skin Cancer (MNT-1)): > 100 µM
- IC50 [3]: > 100 µM
- IC50 (Breast Cancer (MCF-7)): 26.9 ± 8.2 µM
- minimum inhibitory concentration (MIC) (S. aureus (ATCC 6538)): 3.12 µM
- minimum inhibitory concentration (MIC) (K. pneumonia (DSM 26371)): 50 µM
- minimum inhibitory concentration (MIC) (E. coli (ATCC 8739)): 50 µM
- minimum inhibitory concentration (MIC) (H. pylori (ATCC 43504)): 3.12 µM
- minimum inhibitory concentration (MIC) (A. baumannii (DSM 30007)): 6.25 µM
- minimum inhibitory concentration (MIC) [4]: 50 µM
- minimum inhibitory concentration (MIC) (B. subtilis (ATCC 6633)): 1.56 µM
- minimum inhibitory concentration (MIC) (E. faecalis (DSM 2570)): 12.5 µM
- minimum inhibitory concentration (MIC) (E. cloacae (DSM 30054)): 50 µM
- minimum inhibitory concentration (MIC) (E. faecium (DSM 20477)): 6.25 µM

Compound: CC[C@H](C)[C@H](NC(=O)CNC(=O)[C@H](CO)NC(=O)[C@H](CC(C)C)NC(=O)[C@@H](N)Cc1ccccc1)C(=O)N[C@H](C(=O)NCC(=O)N[C@@H](CCSC)C(=O)N[C@@H](CC(C)C)C(=O)N[C@H](C)C(=O)N[C@@H](CCCCN)C(=O)N[C@@H](CC(C)C)C(=O)N[C@@H](Cc1ccccc1)C(N)=O)C(C)C [[G10a]-SHa (2), H-Phe^1-Leu^2-Ser^3-Gly^4-IIe^5-Val^6-Gly^7-Met^8-Leu^9-D-Ala^10-Lys^11-Leu^12-Phe^13-NH2] (H-FLSGIVGML[dA]KLF-NH2)
- IC50 (Lung Cancer (A549)): 12.1 ± 0.4 µM
- IC50 [1]: 22.6 ± 0.7 µM
- IC50 (Liver Cancer (HepG-2)): 37.2 ± 5 µM
- IC50 [2]: 23.1 ± 4.3 µM
- IC50 (Ovarian Cancer (A2780)): 13.4 ± 0.7 µM
- IC50 (Prostate Cancer (PC-3)): 13.1 ± 2.4 µM
- IC50 (Skin Cancer (MNT-1)): 14 ± 0.8 µM
- IC50 [3]: 33 ± 3.1 µM
- IC50 (Breast Cancer (MCF-7)): 18.3 ± 8 µM
- minimum inhibitory concentration (MIC) (S. aureus (ATCC 6538)): 3.12 µM
- minimum inhibitory concentration (MIC) (K. pneumonia (DSM 26371)): 100 µM
- minimum inhibitory concentration (MIC) (E. coli (ATCC 8739)): 100 µM
- minimum inhibitory concentration (MIC) (H. pylori (ATCC 43504)): 3.12 µM
- minimum inhibitory concentration (MIC) (A. baumannii (DSM 30007)): 12.5 µM
- minimum inhibitory concentration (MIC) [4]: >100 µM
- minimum inhibitory concentration (MIC) (B. subtilis (ATCC 6633)): 3.12 µM
- minimum inhibitory concentration (MIC) (E. faecalis (DSM 2570)): 25 µM
- minimum inhibitory concentration (MIC) (E. cloacae (DSM 30054)): >100 µM
- minimum inhibitory concentration (MIC) (E. faecium (DSM 20477)): >100 µM
